According to patent publication US12403128B2, “Compositions and methods for blocking sodium channels” (University of Virginia Patent Foundation, priority 2017, dated 2025):
Counter-ions that a name gives are not always drawn. Like-named read-outs stand apart in the source and are kept apart here.

Legend:
[1] = system: maximal electroshock (MES) seizures; test: MES (maximal electroshock) test, mice; assay type: in vivo; settings: mice; for ED50: Mus musculus
From the text: Evaluation of Compounds in MES Models of Seizures. […] These seizures are highly reproducible and are electrophysiologically consistent with human seizures. […] Abolition of the hindleg tonic extensor component of the seizure was used as the endpoint.

[2] = system: Metrazol-induced clonic seizures; test: scM (subcutaneous Metrazol) test, mice; assay type: in vivo; settings: mice; for ED50: Mus musculus
Procedure: (§1) Evaluation of Compounds in scM Models of Seizures. Subcutaneous injection of the convulsant Metrazol produces clonic seizures in laboratory animals. […] Animals may be pretreated with various doses of the test compound given by ip injection. At a previously determined TPE (time to peak) of the test compound, the dose of Metrazol which will induce convulsions in 97% of animals (CD97:85 mg/kg mice) may be injected into a loose fold of skin in the midline of the neck. The animals may be placed in isolation cages to minimize stress and observed for the next 30 min for the presence or absence of a seizure. An episode of clonic spasms, approximately 3-5 seconds, of the fore and/or hindlimbs, jaws, or vibrissae may be taken as the endpoint. […] The scM test represents acute animal seizures.

[3] = system: 6 Hz psychomotor seizures; test: 6 Hz psychomotor seizure test, mice; assay type: in vivo; settings: IP; for 6 Hz (32 mA) ED50 / 6 Hz (14 mA) ED50: Table 14; for ED50: Mus musculus
Procedure: Evaluation of Compounds in 6 Hz Pyschomotor Seizure Test
Compounds were tested using a 6 Hz psychomotor seizure test. […] For example, both the MES and scM models are insensitive to levetiracetam, a compound considered potentially useful in the management of refractory seizures. […] Thus, the 6 Hz test can serve as a therapy resistant screening paradigm of acute seizure activity.

[4] = system: 6 Hz psychomotor seizures; settings: cited from earlier work
Nav1.6 [5] = biological target: T1, Nav1.6 (Homo sapiens, UniProt Q9UQD0); test: % block of Nav1.6 at 100 μM and IC50 (NaV1.6); assay type: cell-based; settings: for inhibition at 100 µM: 100 μM compound; for IC50: NaV1.6, Table 2, MV1060-MV1091, unit inferred, read-out: IC50
Procedure: Evaluation of Compounds for % Block of Nav1.6 at 100 μM
Compounds of the present invention were tested in an assay for % block of Nav1.6 at a concentration of 100 μM compound. Table 1 also indicates the melting point ranges for some compounds.
Some such compounds correspond to a compound of Formula III, wherein R9 is substituted with a halogen, a nitro or a CF3 group. In comparing MV1089, MV1090 and MV1091, it is shown that compounds of Formula III where R3 is H result in higher % block than when R3 is substituted. e.g., by OCH3. In comparing MV1066, MV1084, MV1085, MV1086, MV1087 and MV1088, it is shown that compounds of Formula III where R9 is halogen, a nitro or a CF3 group result in higher % block than when R9 is OCH3, COOH or CH3.

Nav1.6 [6] = biological target: T1, Nav1.6; test: High-throughput flux assay, Nav1.6; assay type: cell-based; settings: human isoform;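 further: IC50 from the flux assay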
Procedure: (§2) Evaluation of Compounds on Human Isoforms Using a High-Throughput Flux Assay
(§3) Compounds were tested using a high-throughput flux assay across Nav1.5, Nav1.6 and Nav1.7.

NaV1.5 [7] = biological target: T2, NaV1.5 (Homo sapiens, UniProt Q14524); test: High-throughput flux assay, NaV1.5; assay type: cell-based; settings: human isoform;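 further: IC50 from the flux assay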
Procedure: as §2, §3

NaV1.7 [8] = biological target: T3, NaV1.7 (Homo sapiens, UniProt Q15858); test: High-throughput flux assay, NaV1.7; assay type: cell-based; settings: human isoform;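 further: IC50 from the flux assay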
Procedure: as §2, §3

Nav1.6 [9] = biological target: T1, Nav1.6; test: Qube assay, NaV1.6; assay type: cell-based; settings: human isoform; read-out: Qube EP IC50 NaV1.6
Procedure: (§4) Evaluation of Compounds on Human Isoforms Using Qube Assay.
(§5) Compounds were tested using a Qube assay across NaV1.5, NaV1.6 and NaV1.7.

NaV1.5 [10] = biological target: T2, NaV1.5; test: Qube assay, NaV1.5; assay type: cell-based; settings: human isoform; read-out: Qube EP IC50 NaV1.5
Procedure: as §4, §5

NaV1.7 [11] = biological target: T3, NaV1.7; test: Qube assay, NaV1.7; assay type: cell-based; settings: human isoform; read-out: Qube EP IC50 NaV1.7
Procedure: as §4, §5

[12] = system: maximal electroshock (MES) seizures; test: MES (maximal electroshock) test, rats; assay type: in vivo; settings: Rattus norvegicus, rats
From the text: Evaluation of Compounds in MES Models of Seizures. The MES is a model for generalized tonic-clonic seizures and provides an indication of a compound's ability to prevent seizure spread when all neuronal circuits in the brain are maximally active. These seizures are highly reproducible and are electrophysiologically consistent with human seizures. […] Abolition of the hindleg tonic extensor component of the seizure was used as the endpoint.

[13] = system: Metrazol-induced clonic seizures; test: scM (subcutaneous Metrazol) test, rats; assay type: in vivo; settings: Rattus norvegicus, rats
Procedure: as §1

[14] = system: corneal kindled mice seizures; test: Corneal kindled mice model; assay type: in vivo; settings: for Avg. Score / N/F (animals active over number tested): TPE 0.5 hours
Procedure: Evaluation of Compounds in Corneal Kindled Mice Model.
Corneal kindled mice are kindled electrically via 3 second stimulation at 8 mA, 60 Hz through corneal electrodes to produce 10 consecutive stage […] seizures according to the Racine scale. Animals are defined as kindled once they progress to a reproducible stage 5 seizure. 72 hours after the mice have been kindled the test substance is administered and, according to a previously determined TPE (time to peak), the animals are electrically stimulated. The animals are considered protected when displaying a stage 3, or lower, seizure.

[15] = Behavioral toxicity (TOX, TD50), rats; assay type: in vivo; settings: rat, in vivo
in vivo = settings: mouse
[16] = IP, Table 14, read-out: MES ED50
[17] = IP, Table 14, read-out: sCM ED50
[18] = 32 mA, Table 14, read-out: 6 Hz (32 mA) ED50
[19] = (14 mA) [sic], Table 14, read-out: 6 Hz (14 mA) ED50

T1 sequence (Q9UQD0 whole entry): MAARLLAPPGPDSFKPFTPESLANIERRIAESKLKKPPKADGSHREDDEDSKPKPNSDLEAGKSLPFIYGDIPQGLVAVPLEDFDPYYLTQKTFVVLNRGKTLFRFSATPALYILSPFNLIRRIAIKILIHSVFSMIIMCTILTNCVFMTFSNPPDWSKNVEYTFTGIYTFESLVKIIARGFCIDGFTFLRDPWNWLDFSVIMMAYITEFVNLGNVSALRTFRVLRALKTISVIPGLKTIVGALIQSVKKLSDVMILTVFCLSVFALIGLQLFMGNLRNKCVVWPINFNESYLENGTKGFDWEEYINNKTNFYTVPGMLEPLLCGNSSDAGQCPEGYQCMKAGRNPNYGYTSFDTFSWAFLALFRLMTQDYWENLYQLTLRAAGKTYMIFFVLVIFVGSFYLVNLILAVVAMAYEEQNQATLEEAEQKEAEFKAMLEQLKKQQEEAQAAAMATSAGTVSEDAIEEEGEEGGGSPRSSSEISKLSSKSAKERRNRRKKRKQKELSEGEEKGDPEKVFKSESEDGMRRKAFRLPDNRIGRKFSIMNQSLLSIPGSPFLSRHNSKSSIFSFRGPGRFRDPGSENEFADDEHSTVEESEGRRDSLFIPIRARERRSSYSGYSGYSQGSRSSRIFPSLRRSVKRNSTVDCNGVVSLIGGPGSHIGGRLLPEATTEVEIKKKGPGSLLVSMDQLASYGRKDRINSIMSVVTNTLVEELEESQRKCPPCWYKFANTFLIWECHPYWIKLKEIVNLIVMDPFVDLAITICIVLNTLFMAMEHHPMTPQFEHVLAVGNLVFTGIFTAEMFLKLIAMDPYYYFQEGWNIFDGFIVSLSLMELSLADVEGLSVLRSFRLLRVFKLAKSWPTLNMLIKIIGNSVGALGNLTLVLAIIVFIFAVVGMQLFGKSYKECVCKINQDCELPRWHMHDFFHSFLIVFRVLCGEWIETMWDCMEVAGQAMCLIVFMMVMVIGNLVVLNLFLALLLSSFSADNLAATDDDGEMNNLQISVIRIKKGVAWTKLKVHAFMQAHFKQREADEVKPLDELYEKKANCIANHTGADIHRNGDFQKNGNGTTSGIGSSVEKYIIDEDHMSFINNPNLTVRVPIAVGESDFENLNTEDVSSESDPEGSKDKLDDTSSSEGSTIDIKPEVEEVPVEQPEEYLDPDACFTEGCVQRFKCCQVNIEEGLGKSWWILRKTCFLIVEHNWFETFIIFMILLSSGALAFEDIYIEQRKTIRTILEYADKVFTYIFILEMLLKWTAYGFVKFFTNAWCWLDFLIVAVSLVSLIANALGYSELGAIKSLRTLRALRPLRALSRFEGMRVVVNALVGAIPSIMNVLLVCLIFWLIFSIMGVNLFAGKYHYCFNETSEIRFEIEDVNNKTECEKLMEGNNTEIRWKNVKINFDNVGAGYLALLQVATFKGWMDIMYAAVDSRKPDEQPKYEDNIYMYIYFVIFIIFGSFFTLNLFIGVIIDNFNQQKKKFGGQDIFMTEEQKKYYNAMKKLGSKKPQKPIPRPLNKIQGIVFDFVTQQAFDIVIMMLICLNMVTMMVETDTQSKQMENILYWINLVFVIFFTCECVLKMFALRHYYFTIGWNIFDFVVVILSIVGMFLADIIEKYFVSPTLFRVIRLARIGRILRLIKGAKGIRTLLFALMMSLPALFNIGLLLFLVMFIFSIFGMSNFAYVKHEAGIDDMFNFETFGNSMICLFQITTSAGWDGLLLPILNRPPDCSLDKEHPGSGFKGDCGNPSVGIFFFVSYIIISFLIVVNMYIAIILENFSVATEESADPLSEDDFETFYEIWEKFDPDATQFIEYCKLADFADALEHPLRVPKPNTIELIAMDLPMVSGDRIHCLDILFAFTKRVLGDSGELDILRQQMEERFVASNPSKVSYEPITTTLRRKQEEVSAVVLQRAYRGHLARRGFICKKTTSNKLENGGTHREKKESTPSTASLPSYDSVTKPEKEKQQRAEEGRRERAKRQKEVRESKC
T3 sequence (Q15858 whole entry, canonical isoform): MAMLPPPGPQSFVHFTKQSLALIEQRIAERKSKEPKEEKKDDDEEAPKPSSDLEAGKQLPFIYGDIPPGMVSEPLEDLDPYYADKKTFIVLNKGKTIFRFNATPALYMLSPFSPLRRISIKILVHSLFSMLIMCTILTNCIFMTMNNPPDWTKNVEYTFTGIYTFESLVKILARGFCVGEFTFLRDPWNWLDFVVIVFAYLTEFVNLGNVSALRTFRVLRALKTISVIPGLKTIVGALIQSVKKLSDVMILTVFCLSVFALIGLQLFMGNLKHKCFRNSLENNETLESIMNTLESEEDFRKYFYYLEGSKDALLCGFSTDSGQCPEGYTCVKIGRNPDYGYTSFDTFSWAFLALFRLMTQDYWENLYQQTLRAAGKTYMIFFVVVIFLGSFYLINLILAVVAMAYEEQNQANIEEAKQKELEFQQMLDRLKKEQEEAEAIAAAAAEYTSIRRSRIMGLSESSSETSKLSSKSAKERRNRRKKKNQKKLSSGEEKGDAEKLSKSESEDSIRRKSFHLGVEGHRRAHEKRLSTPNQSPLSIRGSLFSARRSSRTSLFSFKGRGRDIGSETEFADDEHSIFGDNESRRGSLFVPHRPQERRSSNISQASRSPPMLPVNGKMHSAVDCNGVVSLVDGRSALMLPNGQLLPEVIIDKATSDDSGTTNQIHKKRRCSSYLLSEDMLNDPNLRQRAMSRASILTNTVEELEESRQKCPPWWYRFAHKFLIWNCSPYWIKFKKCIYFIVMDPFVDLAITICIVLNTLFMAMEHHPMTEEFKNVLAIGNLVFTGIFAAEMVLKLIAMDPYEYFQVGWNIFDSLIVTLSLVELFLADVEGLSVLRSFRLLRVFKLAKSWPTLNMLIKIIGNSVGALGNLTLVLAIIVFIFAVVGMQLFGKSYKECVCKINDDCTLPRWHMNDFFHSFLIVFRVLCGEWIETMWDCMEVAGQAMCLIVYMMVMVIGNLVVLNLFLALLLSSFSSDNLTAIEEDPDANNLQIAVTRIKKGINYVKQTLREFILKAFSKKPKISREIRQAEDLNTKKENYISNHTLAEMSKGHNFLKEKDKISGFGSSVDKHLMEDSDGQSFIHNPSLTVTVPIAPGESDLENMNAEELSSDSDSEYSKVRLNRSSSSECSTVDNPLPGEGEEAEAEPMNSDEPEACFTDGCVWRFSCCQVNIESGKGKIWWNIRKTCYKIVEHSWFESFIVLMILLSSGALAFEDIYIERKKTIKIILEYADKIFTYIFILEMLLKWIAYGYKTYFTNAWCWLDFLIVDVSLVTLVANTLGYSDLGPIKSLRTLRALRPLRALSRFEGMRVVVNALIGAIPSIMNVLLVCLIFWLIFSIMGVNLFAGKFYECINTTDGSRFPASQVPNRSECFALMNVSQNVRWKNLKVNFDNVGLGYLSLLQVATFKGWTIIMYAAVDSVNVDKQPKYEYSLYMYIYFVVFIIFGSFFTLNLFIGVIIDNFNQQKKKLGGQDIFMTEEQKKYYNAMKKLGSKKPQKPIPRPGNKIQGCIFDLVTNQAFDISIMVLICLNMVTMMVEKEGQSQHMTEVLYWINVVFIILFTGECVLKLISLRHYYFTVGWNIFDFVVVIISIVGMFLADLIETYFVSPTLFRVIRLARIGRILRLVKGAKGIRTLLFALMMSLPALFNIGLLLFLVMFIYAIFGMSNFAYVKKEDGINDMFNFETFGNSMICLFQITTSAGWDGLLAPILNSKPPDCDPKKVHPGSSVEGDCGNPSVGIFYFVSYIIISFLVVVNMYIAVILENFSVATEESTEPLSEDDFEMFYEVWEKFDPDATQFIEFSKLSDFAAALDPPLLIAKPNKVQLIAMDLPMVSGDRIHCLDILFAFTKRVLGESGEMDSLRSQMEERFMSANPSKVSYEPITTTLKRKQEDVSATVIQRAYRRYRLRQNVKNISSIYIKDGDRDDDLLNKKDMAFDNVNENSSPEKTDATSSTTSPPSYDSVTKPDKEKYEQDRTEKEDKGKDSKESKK

Compound: Nc1nnc(-c2cccc(Cl)c2Cl)c(N)n1 [Lamotrigine, reference compound]
- ED50 [1, 16]: 7.5 mg/kg
- sCM ED50 ([2]; IP, Table 14): None
- 6 Hz (32 mA) ED50 ([3]; 32 mA): None
- 6 Hz (14 mA) ED50 ([3]; (14 mA) [sic]): None
- activity in 6 Hz test ([4]; 32 mA): lose activity

Compound: O=C1NC(=O)C(c2ccccc2)(c2ccccc2)N1 [Phenytoin, reference compound]
- sCM ED50 ([2]; IP, Table 14): None
- 6 Hz (32 mA) ED50 ([3]; 32 mA): None
- 6 Hz (14 mA) ED50 ([3]; (14 mA) [sic]): None
- activity in 6 Hz test ([4]; 32 mA): lose activity

Compound: COc1ccc(-c2nc(C)c(-c3ccccc3)[nH]2)cc1O [MV1508, 2-methoxy-5-(5-methyl-4-phenyl-1H-imidazol-2-yl)phenol hydrochloride]
- inhibition at 100 µM (Nav1.6 [5]): 90%
- IC50 (Nav1.6 [6]): 1.88 µM
- IC50 (NaV1.5 [7]): 2.61 µM
- IC50 (NaV1.7 [8]): 4.58 µM
- IC50 (Nav1.6 [9]): 3.99 µM
- IC50 (NaV1.5 [10]): 11.9 µM
- IC50 (NaV1.7 [11]): 11.5 µM

Compound: COc1ccc(-c2nc(C)c(-c3ccccc3)[nH]2)cc1 [MV1501, 2-(4-methoxyphenyl)-4-methyl-5-phenyl-1H-imidazole hydrochloride]
- inhibition at 100 µM (Nav1.6 [5]): 90%
- IC50 (Nav1.6 [6]): 2.74 µM
- IC50 (NaV1.5 [7]): 6.24 µM
- IC50 (NaV1.7 [8]): 7.98 µM
- IC50 (Nav1.6 [9]): 7.43 µM
- IC50 (NaV1.5 [10]): 27 µM
- IC50 (NaV1.7 [11]): 14.8 µM

Compound: CC[C@@H](C(N)=O)N1CCCC1=O [levetiracetam]
- activity in 6 Hz test ([4]; 44 mA): need higher doses

Compound: NC(=O)N1c2ccccc2C=Cc2ccccc21 [Carbamazepine, reference compound]
- ED50 [1, 16]: 7.8 mg/kg
- sCM ED50 ([2]; IP, Table 14): None
- 6 Hz (32 mA) ED50 ([3]; 32 mA): None
- 6 Hz (14 mA) ED50 ([3]; (14 mA) [sic]): None
- TOX (TD50) (mice; mice, IP, Table 14): 45.5 mg/kg

Compound: CC(=O)Nc1ccc(-c2nc(C)c(-c3ccccc3)[nH]2)cc1 [MV1509, N-2,4-[3-methyl-4-phenyl-1H-imidazol-2-yl)phenyl]acetamide hydrochloride]
- inhibition at 100 µM (Nav1.6 [5]): 90%
- IC50 (Nav1.6 [6]): 5.67 µM
- IC50 (NaV1.5 [7]): 7.94 µM
- IC50 (NaV1.7 [8]): 23.8 µM
- IC50 (Nav1.6 [9]): 8.24 µM
- IC50 (NaV1.5 [10]): 15.9 µM
- IC50 (NaV1.7 [11]): 30 µM

Compound: CCC1(C)CC(=O)NC1=O (stereo not drawn) [Ethosuximide, reference compound]
- MES ED50 ([1]; IP, Table 14): None
- ED50 [2, 17]: 136 mg/kg
- 6 Hz (14 mA) ED50 ([3]; (14 mA) [sic]): None
- ED50 [3, 18]: 167 mg/kg
- TOX (TD50) (mice; mouse, in vivo, ip): 341 mg/kg
- activity in 6 Hz test ([4]; 44 mA): ineffective

Compound: O=C(O)c1ccccc1-c1nc2ccccc2[nH]1 [MV1078, 2-(1H-1,3-benzodiazol-2-yl)benzoic acid]
- inhibition at 100 µM (Nav1.6 [5]): 5%
- IC50 (Nav1.6 [5]): > 100 µM

Compound: COc1ccc(-c2nc(-c3cccc(NC(=O)c4ccc(Cl)cc4)c3)c[nH]2)cc1 [MV1312, 4-CHLORO-N-(3-[2-(4-METHOXY-PHENYL)-1H-IMIDAZOL-4-YL]-PHENYL)-BENZAMIDE HYDROCHLORIDE]
- inhibition at 100 µM (Nav1.6 [5]): 85%

Compound: CCCC(CCC)C(=O)O [Valproic Acid, reference compound]
- ED50 [1, 16]: 263 mg/kg
- ED50 [2, 17]: 220 mg/kg
- ED50 [3, 18]: 126 mg/kg
- ED50 [3, 19]: 310 mg/kg
- activity in 6 Hz test ([4]; 44 mA): need higher doses

Compound: COc1ccc(-c2nc3ccccc3[nH]2)cc1 [MV1062, 2-(4-methoxyphenyl)-1H-1,3-benzodiazole]
- inhibition at 100 µM (Nav1.6 [5]): 70%
- IC50 (Nav1.6 [5]): 90.2 µM
- ED50 [1, 16]: 30.8 mg/kg
- ED50 ([1]; read-out: ED50 (MES test)): 30.8 mg/kg
- ED50 ([12]; IP, Table 15, read-out: MES ED50): 10.8 mg/kg
- ED50 ([12]; read-out: ED50 (MES test)): 10.8 mg/kg
- ED50 ([2]; sc, read-out: ED50 (scM test)): 206 mg/kg
- ED50 [2, 17]: 206 mg/kg
- ED50 ([13]; sc, read-out: ED50 (scM test)): 123 mg/kg
- ED50 ([13]; IP, Table 15, read-out: sCM ED50): 122 mg/kg
- ED50 [3, 18]: 69.6 mg/kg
- ED50 [3, 19]: 80.5 mg/kg
- Avg. Score ([14]; 20 mg/kg): 5.0
- N/F (animals active over number tested) ([14]; 20 mg/kg): 0/8
- Avg. Score ([14]; 55 mg/kg): 4.0
- N/F (animals active over number tested) ([14]; 55 mg/kg): 3/8
- Avg. Score ([14]; 100 mg/kg): 1.375
- N/F (animals active over number tested) ([14]; 100 mg/kg): 7/8
- ED50 ([14]; Mus musculus): 63.6 mg/kg
- TD50 ([15]; IP, Table 15, read-out: TOX TD50): > 500 mg/kg
- TD50 ([15]; read-out: TD50 (behavioral toxic dose)): > 500 mg/kg
- TD50 (in vivo): 601 mg/kg
- TD50 (in vivo; ip): 601 mg/kg

Compound: Cc1cnc(-c2ccc(Cl)cc2)[nH]1 [MV1359, 2-(4-CHLORO-PHENYL)-5-METHYL-1H-IMIDAZOLE OXALATE]
- inhibition at 100 µM (Nav1.6 [5]): 75%

Compound: Cc1ccc2nc(-c3ccccc3)[nH]c2c1 [MV1088, 6-methyl-2-phenyl-1H-1,3-benzodiazole]
- inhibition at 100 µM (Nav1.6 [5]): 55%

Compound: COc1cccc(-c2ncc[nH]2)c1 [MV1351, 2-(3-METHOXY-PHENYL)-1H-IMIDAZOLE OXALATE]
- inhibition at 100 µM (Nav1.6 [5]): 25%

Compound: COc1ccc(C(=O)Nc2ccc(-c3c[nH]c(-c4ccc(OC)cc4)n3)cc2)cc1 [MV1304, 4-METHOXY-N-(4-[2-(4-METHOXY-PHENYL)-1H-IMIDAZOL-4-YL]-PHENYL)-BENZAMIDE HYDROCHLORIDE]
- inhibition at 100 µM (Nav1.6 [5]): 40%

Compound: O=[N+]([O-])c1ccccc1-c1nc2ccccc2[nH]1 [MV1070, 2-(2-nitrophenyl)-1H-1,3-benzodiazole]
- inhibition at 100 µM (Nav1.6 [5]): 20%
- IC50 (Nav1.6 [5]): > 100 µM

Compound: FC(F)(F)c1cccc(-c2nc3ccccc3[nH]2)c1 [MV1076, 2-(3-trifluoromethyl-phenyl)-1H-1,3-benzodiazole]
- inhibition at 100 µM (Nav1.6 [5]): 60%

Compound: COc1cccc(-c2nc(C)c(C)[nH]2)c1 [MV1363, 2-(3-METHOXY-PHENYL)-4,5-DIMETHYL-1H-IMIDAZOLE OXALATE]
- inhibition at 100 µM (Nav1.6 [5]): 80%
